From patent US20190389830A1, “NRF2 ACTIVATOR” (BIOGEN MA INC., priority 2017, published 2019)

Key:
Type in all cases: cell-based
Nrf2 target genes = assay: Gene expression (RT-PCR) in cultured human astrocytes; conditions: 20 hours, increasing concentrations
Protocol: (§1) Human astrocytes from ScienCell (cat #1820) were grown in astrocyte medium per supplier's instructions. Cells cultured for no more than two passages were plated in 96-well plates at 40,000 cells per well for gene transcription experiments and 20,000 cell per well for glutathione and cytoprotection assays.
Primary cultures of human spinal cord astrocytes were treated with compound 3-Ent1 for 20 hours. The cells were then rinsed in PBS, lysed, and processed for RNA using Ambion Taqman™ Cells-to-CT kit. The resulting cDNA was stored at −20° C. until analysis by real-time polymerase chain reaction (RT-PCR). The cDNA mixture from Cells-to-CT was diluted 5x before loading into PCR. This yields results similar to using 6 ng of purified cDNA. RT-PCR was performed on Life Technologies QuantStudio platform using OpenArray technique according to manufacturer's protocol using the following Taqman primers: […]
The comparative CT method was used to calculate fold changes using ThermoFisher Cloud software for PCR analysis. Samples were compared to vehicle control.

human astrocytes [1] = assay: Glutathione assay (GSH-Glo) in human astrocytes; conditions: 20-hr exposure (FIG. 2)
Protocol: as §1
Intracellular glutathione was measured after a 20-hr exposure to test compound 3-Ent1 by a two-step process. First, cells were lysed and luciferin quantitatively generated from substrate, catalyzed by glutathione-S-transferase in the presence of analyte glutathione. Then luciferin was assayed using stabilized luciferase to produce a luminescent signal proportional to the concentration of glutathione (Promega GSH-Glo, cat #V6912).

human astrocytes [2] = assay: Cytoprotection of astrocytes against sodium arsenite; conditions: compound 20 hrs before 25 μM sodium arsenite, further 22 hrs (FIG. 3)
Protocol: as §1
Astrocytes were treated for 20 hrs as above, then the medium was removed and replaced with serum- and supplement-free growth medium with and without 25 μM sodium arsenite. After 22 hrs., cells were washed with PBS, fixed with 4% paraformaldehyde/4% sucrose in PBS, stained with 4′,6-Diamidino-2-phenylindole dihydrochloride (DAPI) and counted by quantitative fluorescence microscopy.

CC1CCC2(C)C=C(C#N)C(=O)C(C)(C)C2O1 (single isomer, unassigned; ent1) [Compound 3-Ent1]
transcription of GCLC (Nrf2 target genes; compared to vehicle control (FIG. 1A)): induces transcription
transcription of HMOX1 (Nrf2 target genes; compared to vehicle control (FIG. 1B)): induces transcription
transcription of OSGIN1 (Nrf2 target genes; compared to vehicle control (FIG. 1C)): induces transcription
transcription of NQO1 (Nrf2 target genes; compared to vehicle control (FIG. 1D)): induces transcription
intracellular glutathione (human astrocytes [1]): increases
protection from oxidative stress-induced cell death (human astrocytes [2]): protects cells
